According to US20260184707A1, “PHARMACEUTICAL COMPOUNDS FOR THE TREATMENT OF COMPLEMENT MEDIATED DISORDERS” (ALEXION PHARMACEUTICALS, INC., priority 2022, published 2026):

Molecular target: T1, Human complement C1s enzyme (Homo sapiens, UniProt P09871)
T1 construct: purified from human serum, Complement Technology, Inc; purchased Complement Technology, Inc; host or cells: human serum (plasma-derived native protein)
T1 sequence (P09871 438-688 limits assumed): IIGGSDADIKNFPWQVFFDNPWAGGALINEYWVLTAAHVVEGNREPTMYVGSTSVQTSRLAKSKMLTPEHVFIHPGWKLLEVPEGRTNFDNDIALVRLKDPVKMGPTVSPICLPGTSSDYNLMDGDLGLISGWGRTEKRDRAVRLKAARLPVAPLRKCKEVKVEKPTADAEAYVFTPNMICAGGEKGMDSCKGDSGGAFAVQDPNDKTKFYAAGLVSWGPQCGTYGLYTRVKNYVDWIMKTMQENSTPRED
T1 sequence (P09871 16-437 partner limits assumed): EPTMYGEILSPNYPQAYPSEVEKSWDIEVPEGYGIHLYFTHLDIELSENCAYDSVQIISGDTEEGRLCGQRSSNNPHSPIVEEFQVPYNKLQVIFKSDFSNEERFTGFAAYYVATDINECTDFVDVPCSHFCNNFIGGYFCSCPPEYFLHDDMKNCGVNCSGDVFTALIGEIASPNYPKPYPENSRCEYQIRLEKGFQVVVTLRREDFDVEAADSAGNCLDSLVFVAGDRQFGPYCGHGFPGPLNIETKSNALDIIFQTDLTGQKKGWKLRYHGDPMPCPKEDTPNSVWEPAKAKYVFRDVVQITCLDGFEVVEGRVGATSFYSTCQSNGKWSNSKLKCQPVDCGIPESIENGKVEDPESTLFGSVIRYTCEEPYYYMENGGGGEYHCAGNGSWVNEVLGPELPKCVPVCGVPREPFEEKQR
Experiment: Human C1s enzyme assay
Format: biochemical
Conditions: human complement C1s enzyme 1.16 nM, substrate Z-L-Lys-SBzl, A405; read-out: IC50 (Stars)
Procedure, shortened: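 Serum-purified human C1s (1.16 nM final) preincubated 5 min at room temperature with compound in 50 mM Tris, 1 M NaCl, pH 7.5. Z-L-Lys-SBzl and DTNB added at 100 μM each; A405 recorded every 30 s. IC50 from nonlinear regression of reaction rates versus compound concentration.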

Compound | IC50 [nM]
COC[C@H]1CN(c2ncc(N[C@H](C)c3ccc4oc5ccccc5c4c3)c(=O)n2CC(=O)NCc2cc3cnccc3[nH]2)CCO1 [Compound 469, N-((1H-pyrrolo[3,2-c]pyridin-2-yl)methyl)-2-(5-(((R)-1-(dibenzo[b,d]furan-2-yl)ethyl)-amino)-2-((R)-2-(methoxy-methyl)morpholino)-6-oxo-pyrimidin-1(6H)-yl)acetamide] | 100 to 1000
C[C@@H](Nc1cnc(N2CCCCC2)n(CC(=O)NCc2cc3cnccc3[nH]2)c1=O)c1coc(-c2ccccc2F)n1 [Compound 475, (R)—N-((1H-Pyrrolo[3,2-c]pyridine-2-yl)methyl)-2-(5-((1-(2-(2-fluorophenyl)oxazol-4-yl)ethyl)amino)-6-oxo-2-(piperidin-1-yl)pyrimidin-1(6H)-yl) acetamide] | 100 to 1000
C[C@@H](Nc1cnc(C2CCCC2)n(CC(=O)NCc2cc3cnccc3[nH]2)c1=O)c1coc(-c2ccccc2)n1 [Compound 476, (R)-N-((1H-pyrrolo[3,2-c]pyridin-2-yl)methyl)-2-(2-cyclopentyl-6-oxo-5-((1-(2-phenyloxazol-4-yl)ethyl)-amino)pyrimidin-1(6H)-yl)-acetamide] | 100 to 1000
C[C@@H](Nc1cnc(N2CCCC2)n(CC(=O)NCc2cc3cnccc3[nH]2)c1=O)c1coc(-c2ccccc2)n1 [Compound 481, (R)-N-((1H-pyrrolo[3,2-c]pyridin-2-yl)methyl)-2-(6-oxo-5-((1-(2-phenyloxazol-4-yl)-ethyl)amino)-2-(pyrrolidin-1-yl)pyrimidin-1(6H)-yl)acet-mide] | 100 to 1000
O=C(Cn1cncc(NCc2cc3ccccc3o2)c1=O)NCc1cc2cnccc2[nH]1 [Compound 486, N-((1H-pyrrolo[3,2-c]pyridin-2-yl)methyl)-2-(5-((benzofuran-2-ylmethyl)amino)-6-oxopyr-imidin-1(6H)-yl)acetamide] | < 100
C[C@@H](Nc1cnc(N2CCCCC2)n(CC(=O)NCc2cc3cnccc3[nH]2)c1=O)c1nc(-c2ccccc2)co1 [Compound 487, (R)—N-((1H-Pyrrolo[3,2-c]pyridine-2-yl)methyl)-2-(6-oxo-5-((1-(4-phenyloxazol-2-yl)ethyl)amino)-2-(piperidin-1-yl)pyrimidin-1(6H)-yl) acetamide] | < 100
C[C@@H](Nc1cnc(N2CCCCC2)n(CC(=O)NCc2cc3cnccc3[nH]2)c1=O)c1ncc(-c2ccccc2)o1 [Compound 488, (R)-N-((1H-pyrrolo[3,2-c]pyridin-2-yl)methyl)-2-(6-oxo-5-((1-(5-phenyloxazol-2-yl)-ethyl)amino)-2-(piperidin-1-yl)pyrimidin-1(6H)-yl)acet-amide] | < 100
O=C(CN1C(=O)[C@H](NCCCc2ccccc2)CC[C@H]1c1ccccc1)NCc1cc2cnccc2[nH]1 [Compound 490, N-((1H-pyrrolo[3,2-c]pyridin-2-yl)methyl)-2-((3R,6S)-2-oxo-6-phenyl-3-((3-phenylpropyl)-amino)piperidin-1-yl)acetamide] | > 1000
C[C@@H](Nc1nnc(N2CCCCC2)n(CC(=O)NCc2cc3cnccc3[nH]2)c1=O)c1ccc2oc3ccccc3c2c1 [Compound 491, (R)-N-((1H-pyrrolo[3,2-c]pyridin-2-yl)methyl)-2-(6-((1-(dibenzo[b,d]furan-2-yl)ethyl)-amino)-5-oxo-3-(piperidin-1-yl)-1,2,4-triazin-4(5H)-yl)-acetamide] | < 100
O=C(Cn1c(N2CCOCC2)cnc(NC(=O)c2coc(-c3ccccc3)n2)c1=O)NCc1cc2cnccc2[nH]1 [Compound 492, N-(4-(2-(((1H-Pyrrolo[3,2-c]pyridine-2-yl)methyl)amino)-2-oxoethyl)-5-morpholino-3-oxo-3,4-dihydropyrazin-2-yl)-2-phenyloxazole-4-carboxamide] | < 100
O=C(Cn1c(N2CCCCC2)cnc(N[C@H](CO)c2ccc3oc4ccccc4c3c2)c1=O)NCc1cc2cnccc2[nH]1 [Compound 493, (S)—N-((1H-Pyrrolo[3,2-c]pyridine-2-yl)methyl)-2-(3-((1-(dibenzo[b,d]furan-2-yl)-2-hydroxyethyl)amino)-2-oxo-6-(piperidin-1-yl)pyrazin-1(2H)-yl)acetamide] | > 1000

Further lines, results first:

IC50 [nM] | Compound
< 100 | C[C@@H](Nc1ncc(N2CCC(O)CC2)n(CC(=O)NCc2cc3cnccc3[nH]2)c1=O)c1ccc2oc3ccccc3c2c1 [Compound 470, (R)-N-((1H-pyrrolo[3,2-c]pyridin-2-yl)methyl)-2-(3-((1-(dibenzo[b,d]furan-2-yl)ethyl)-amino)-6-(4-hydroxypiperidin-1-yl)-2-oxopyrazin-1(2H)-yl)-acetamide]
< 100 | C[C@@H](Nc1ncc(C2CCOCC2)n(CC(=O)NCc2cc3cnccc3[nH]2)c1=O)c1ccc2oc3ccccc3c2c1 [Compound 471, (R)—N-((1H-Pyrrolo[3,2-c]pyridine-2-yl)methyl)-2-(3-((1-(dibenzo[b,d]furan-2-yl)ethyl)amino)-2-oxo-6-(tetrahydro-2H-pyran-4-yl)pyrazin-1(2H)-yl)acetamide]
< 100 | O=C(Cn1c(N2CCCCC2)cnc(NCc2nnc(-c3ccccc3)s2)c1=O)NCc1cc2cnccc2[nH]1 [Compound 472, N-((1H-pyrrolo[3,2-c]pyridin-2-yl)methyl)-2-(2-oxo-3-(((5-phenyl-1,3,4-thiadiazol-2-yl)-methyl)amino)-6-(piperidin-1-yl)pyrazin-1(2H)-yl)acetamide]
< 100 | O=C(Cn1c(N2CCCCC2)cnc(NCc2cc(-c3ccccc3)no2)c1=O)NCc1cc2cnccc2[nH]1 [Compound 473, N-((1H-pyrrolo[3,2-c]pyridin-2-yl)methyl)-2-(2-oxo-3-(((3-phenylisoxazol-5-yl)methyl)-amino)-6-(piperidin-1-yl)pyr-azin-1(2H)-yl)acetamide]
< 100 | Cc1cnc(CNc2ncc(N3CCCCC3)n(CC(=O)NCc3cc4cnccc4[nH]3)c2=O)o1 [Compound 474, N-((1H-pyrrolo[3,2-c]pyridin-2-yl)methyl)-2-(3-(((5-methyl-oxazol-2-yl)methyl)amino)-2-oxo-6-(piperidin-1-yl)pyr-azin-1(2H)-yl)acetamide]
< 100 | O=C(Cn1c(N2CCCCC2)cnc(NCc2cc(-c3ccccc3)ns2)c1=O)NCc1cc2cnccc2[nH]1 [Compound 477, N-((1H-pyrrolo[3,2-c]pyridin-2-yl)methyl)-2-(2-oxo-3-(((3-phenylisothiazol-5-yl)methyl)-amino)-6-(piperidin-1-yl)pyr-azin-1(2H)-yl)acetamide]
< 100 | O=C(Cn1c(N2CCCCC2)cnc(NCc2noc(-c3ccccc3)n2)c1=O)NCc1cc2cnccc2[nH]1 [Compound 478, N-((1H-pyrrolo[3,2-c]pyridin-2-yl)methyl)-2-(2-oxo-3-(((5-phenyl-1,2,4-oxadiazol-3-yl)-methyl)amino)-6-(piperidin-1-yl)pyrazin-1(2H)-yl)acetamide]
< 100 | O=C(Cn1c(N2CCCCC2)cnc(NCc2cc(-c3ccccc3F)on2)c1=O)NCc1cc2cnccc2[nH]1 [Compound 479, N-((1H-pyrrolo[3,2-c]pyridin-2-yl)methyl)-2-(3-(((5-(2-fluorophenyl)isoxazol-3-yl)-methyl)amino)-2-oxo-6-(piper-idin-1-yl)pyrazin-1(2H)-yl)-acetamide]
< 100 | O=C(Cn1c(N2CCCCC2)cnc(NCc2noc3ccccc23)c1=O)NCc1cc2cnccc2[nH]1 [Compound 480, N-((1H-pyrrolo[3,2-c]pyridin-2-yl)methyl)-2-(3-((benzo[d]isoxazol-3-ylmethyl)amino)-2-oxo-6-(piperidin-1-yl)pyrazin-1(2H)-yl)acetamide]
< 100 | COCC(=O)N1CCN(c2ncc(N[C@H](C)c3ccc4oc5ccccc5c4c3)c(=O)n2CC(=O)NCc2cc3cnccc3[nH]2)CC1 [Compound 482, (R)-N-((1H-pyrrolo[3,2-c]pyridin-2-yl)methyl)-2-(5-((1-(dibenzo[b,d]furan-2-yl)ethyl)-amino)-2-(4-(2-methoxyacet-yl)piperazin-1-yl)-6-oxopyr-imidin-1(6H)-yl)acetamide]
< 100 | Cn1cc(-c2ncc(NCc3cc4ccccc4o3)c(=O)n2CC(=O)NCc2cc3cnccc3[nH]2)cn1 [Compound 483, N-((1H-pyrrolo[3,2-c]pyridin-2-yl)methyl)-2-(5-((benzo-furan-2-ylmethyl)amino)-2-(1-methyl-1H-pyrazol-4-yl)-6-oxopyrimidin-1(6H)-yl)-acetamide]
< 100 | O=C(Cn1cncc(NCc2cc(-c3ccccc3)ns2)c1=O)NCc1cc2cnccc2[nH]1 [Compound 484, N-((1H-pyrrolo[3,2-c]pyridin-2-yl)methyl)-2-(6-oxo-5-(((3-phenylisothiazol-5-yl)methyl)-amino)pyrimidin-1(6H)-yl)-acetamide]
< 100 | O=C(Cn1cncc(NCc2nnc(-c3ccccc3)s2)c1=O)NCc1cc2cnccc2[nH]1 [Compound 485, N-((1H-pyrrolo[3,2-c]pyridin-2-yl)methyl)-2-(6-oxo-5-(((5-phenyl-1,3,4-thiadiazol-2-yl)-methyl)amino)pyrimidin-1(6H)-yl)acetamide]
